Reference: patent publication US9205064B2, “Methods for the diagnosis of oncological disorders using epimetabolic shifters, multidimensional intracellular molecules, or environmental influencers” (Berg LLC, priority 2009, dated 2015)

Assays:
[1] = system: PaCa-2 pancreatic cancer cells; assay: SeaHorse XF analyzer OCR and ECAR; assay type: cell-based
From the text: (§1) Environmental influencers (e.g., MIMs or Epi-shifters) may also be identified by changes in cellular energetics. One example of the measurement of cellular energetics are the real-time measures of the consumption of molecular oxygen and/or the change in pH of the media of a cell culture. For example, the ability of a potential epi-shifter to modulate the metabolic state of a cell may be analyzed using, for example, the XF24 Analyzer (Seahorse, Inc.). This technology allows for real time detection of oxygen and pH changes in a monolayer of cells in order to evaluate the bioenergetics of a cell microenvironment. The XF24 Analyzer measures and compares the rates of oxygen consumption (OCR), which is a measure of aerobic metabolism, and extracellular acidification (ECAR), which is a measure of glycolysis, both key indicators of cellular energetics.
(§2) (SeaHorse Biosciences Inc, North Billerica, Mass.).
(§3) In contrast, cancer cells (e.g., MCF-7, PaCa-2) are inherently primed to culture at higher levels of glucose compared to normal cells due to their glycolytic phenotype for maintenance in culture.
In contrast to normal cells, cancer cells are phenotypically primed to use high glucose for ATP generation (enhanced glycolysis) resulting in higher ECAR (Table 55, ECAR for untreated normoxia 17 mM) at 21 mpH/min. […]

[2] = system: HASMC cells; assay: SeaHorse XF analyzer OCR and ECAR; assay type: cell-based, human; settings: hyperglycemic, hypoxic conditions
From the text: as §1, §2
In this experiment, the OCR and extracellular acidification rate (ECAR) in normal cells lines were obtained in the presence and absence of CoQ10 to determine baseline values. It was observed that in its native nutrient environment, the basal OCR rates in normal cells lines are different, and are usually a function of the physiological roles of the cells in the body. […]
In Table 54 the measured baseline ECAR values (mpH/min) in HASMC were higher compared to that of HDFa. […]

[3] = system: MCF-7 breast cancer cells; assay: SeaHorse XF analyzer OCR and ECAR; assay type: cell-based; settings: absence and presence of stressors
From the text: as §1, §2, §3

[4] = system: SCC cells; assay: 2-D gel electrophoresis proteomic analysis with mass spectrometry identification; assay type: cell-based; settings: 100 μM Q10, 24 hr
From the text: The gels were run in duplicate.

[5] = system: Pancreatic Cancer Cells (PaCa2); assay: Real-time PCR Apoptosis Array; assay type: cell-based; settings: 100 uM Q10, various times
Procedure: Experiments were carried out essentially as described above.

[6] = rats, oral; cited from earlier work
[7] = system: SK-MEL28; assay: Nexin assay for apoptosis (Annexin-V-PE/7-AAD, flow cytometry); assay type: cell-based; settings: 50 μM and 100 μM Q10, 24 hours
From the text: (§4) The 7AAD dye will enter into cells with permeabilized cell membranes; primarily those cells that are in late apoptosis. Annexin-V-PE is a dye that binds to Phosphotidyl serine, which is exposed on the outer surface of the plasma membrane in early apoptotic cells. The Nexin reagent thus can be used to differentiate between different populations of apoptotic cells in a flow cytometer.

[8] = system: PC-3; assay: as above; assay type: cell-based; settings: 50 μM and 100 μM Q10, 24 hours; less than PaCa2
From the text: as §4

[9] = system: MCF-7; assay: as above; assay type: cell-based; settings: 50 μM and 100 μM Q10, 24 hours
From the text: as §4

[10] = system: Succinate Dehydrogenase B in NCIE0808 Mitopreps; assay: Western blot of succinate dehydrogenase B in mitochondrial preparations; assay type: cell-based; settings: mitochondrial preparations of cancer cells
Procedure: The above blots were stripped by incubating for 30 minutes with methanol, followed by two 10 minute washes with TBS-T, then 30 minutes of incubation with Stripping buffer at 50 deg C., and followed by two washes with 100 ml or more of TBS-T for 30′ each. The blots were scanned in laser scanner to check for complete stripping. The blots were activated with methanol for 5 seconds, washed with water for 5 minutes, and TBST for 15 minutes. The blots were blocked for 1 hour with 5% blocking reagent in TBS-T at room temperature and then washed 3 times with TBS-T (1×-15′; 2×5′ each) and probed with the primary antibody for PKM2, SDHB or SDHC in 5% BSA in TBS-T by incubation overnight at 4 deg C. with gentle shaking. The primary antibody for SDHC (ABNOVA H00006391-M02; antimouse) was at 1:500 dilution. The primary antibody for SDHB was from Abcam ab4714-200; antimouse; at 1:1000 dilution. The primary antibody for Pyruvate Kinase M2 (PKM2) was from Novus Biologicals H00005315-D0IP; antirabbit; at 1:500 dilution. After incubation with primary antibodies, the membranes were washed 3 times with TBS-T (1×-15′; 2×5′ each) and probed with the secondary antibody (SDHB & C antimouse; and PKM2 antirabbit; 1:10,000 dilution) for 1 h on the orbital tilting shaker at room temperature. […]

[11] = system: SCC cells; assay: Real-time PCR Heat Shock Protein Array; assay type: cell-based
From the text: The control cells were untreated cells.
RNA was quantified by measuring Optical Density at 260 nm.
Heat Shock Arrays were run for SCC cells and the data of regulated genes is summarized below in Table 13.

[12] = system: SKMEL-28 mitochondria; assay: 2-D gel electrophoresis of mitochondria enriched samples; assay type: cell-based
[13] = system: HDFa cells; assay: SeaHorse XF analyzer OCR and ECAR; assay type: cell-based, human; settings: normoxic and hypoxic, 5.5 mM and 22 mM glucose
From the text: as §1, §2
In this experiment, the OCR and extracellular acidification rate (ECAR) in normal cells lines were obtained in the presence and absence of CoQ10 to determine baseline values. It was observed that in its native nutrient environment, the basal OCR rates in normal cells lines are different, and are usually a function of the physiological roles of the cells in the body.
FIGS. 29 and 30 describe the OCR in HDFa and HASMC cells grown in physiologically normal glucose (about 4.6 mM) and high glucose (hyperglycemic) conditions.
Table 53, below, describes the ECAR values (mpH/min) in HDFa cells in the presence or absence of CoQ10 under normoxic and hypoxic conditions at 5.5 mM and 22 mM glucose.

## COC1=C(OC)C(=O)C(C/C=C(\C)CC/C=C(\C)CC/C=C(\C)CC/C=C(\C)CC/C=C(\C)CC/C=C(\C)CC/C=C(\C)CC/C=C(\C)CC/C=C(\C)CCC=C(C)C)=C(C)C1=O [Q10, Coenzyme Q10]
[1]; absence and presence of stressors
  OCR values: consistent reduction
[1]; normoxia, high glucose
  ECAR rates: significant decrease
[2]
  ECAR rates: downward trend
[3]
  OCR values: consistent reduction
[4]
  HSP 70, spot 116: Response (further): decrease at 24 hr
  NM23 protein (NME1), spot 54: Response: decrease at 24 hr
[5]
  mRNA of ABL1, AKT1, Bcl2L1, BclAF1, CASP1, CASP2, CASP6, CIDEA, FADD, LTA, TNF, TNFSF10A and TNFSF10: modulated
[6]
  fraction of orally-administered CoQ10 absorbed: 2-3%
[7]
  apoptotic population: increase only in early apoptotic population
[8]
  early and late apoptotic population: increase
[9]
  apoptotic population: increase only in early apoptotic population
[10]
  SDH Subunit B protein levels: increase SDH protein levels
[11]; 100 μM Q10, 6 hours
  DNAJB5 mRNA Regulation: Down regulated
  DNAJB13 mRNA Regulation: Down regulated
  DNAJC4 mRNA Regulation: Down regulated
  DNAJC5B mRNA Regulation: Down regulated
  DNAJC12 mRNA Regulation: Down regulated
[11]; 100 μM Q10, 24 hours
  CCT6B mRNA Regulation: Down regulated
[12]; 100 μM Q10, 19 and 48 hr
  PDIA3 (ER60 protein), spot 110: Response: Up at 19 and 48 hr
  Unknown, spot 131: Response: drops more for 19
[12]; 100 μM Q10, 48 hr
  CCDC58, spot 75: Response: Up at 48 hr
[12]; 100 μM Q10, after 6 hr
  Unknown protein, spot 11: Response: drop to low levels
[12]; 100 μM Q10, only at 19 hr
  Beta-Actin, spot 202: Response: Up only at 19 hr
  KRT10 (Keratin 10), spot 185: Response: Up only at 19 hr
  MLEC (Malectin), spot 246: Response: Up only at 19 hr
[13]
  influence on ECAR values: minimal influence
